Assay results published in patent US20150335677A1, “Argon is a mu opioid receptor antagonist” (priority 2014, published 2015).

Experiments:
Sprague-Dawley rats [1] = test: Time in central area of open field after electric shock conditioning; type: in vivo, rat; conditions: argon 75 vol % 3 h day 4 to day 6 vs air; recorded on days 4 to 6 and on day 8; P<0.05
Procedure: In a second series of experiments, from day 1 to day 3, additional male Sprague-Dawley rats (n=6 per group) were placed for 10 min in an open field measuring 90 cm×90 cm, which central area measuring 50 cm×50 cm was equipped for delivering an electric shock to the animals that stayed more than 5 s in the area. From day 4 to day 6, the animals were treated for 3 h with medical air or argon at 75 vol % at a flow rate of 5 L/min in a closed chamber. Immediately after being treated with either air or argon from day 4 to day 6, and on day 8, rats were placed in the open field, and recorded during a 10-min period for the time that they spent in the central area whose electrical circuit was switched off.

[2] = normobaric and hyperbaric pressures of 1 to 4 atmospheres absolute; cited from earlier work
mu opioid receptor = biological target: T1, mu opioid receptor (Rattus norvegicus, UniProt P33535); test: [3H]-DAMGO binding in rat whole-brain membrane protein preparations; conditions: 100 vol % argon compared to 100 vol % nitrogen
T1 construct: Membrane preparations were obtained from whole brains of rats untreated (n=4); from tissue; host or cells: rat whole brain membranes
T1 sequence (P33535 whole entry): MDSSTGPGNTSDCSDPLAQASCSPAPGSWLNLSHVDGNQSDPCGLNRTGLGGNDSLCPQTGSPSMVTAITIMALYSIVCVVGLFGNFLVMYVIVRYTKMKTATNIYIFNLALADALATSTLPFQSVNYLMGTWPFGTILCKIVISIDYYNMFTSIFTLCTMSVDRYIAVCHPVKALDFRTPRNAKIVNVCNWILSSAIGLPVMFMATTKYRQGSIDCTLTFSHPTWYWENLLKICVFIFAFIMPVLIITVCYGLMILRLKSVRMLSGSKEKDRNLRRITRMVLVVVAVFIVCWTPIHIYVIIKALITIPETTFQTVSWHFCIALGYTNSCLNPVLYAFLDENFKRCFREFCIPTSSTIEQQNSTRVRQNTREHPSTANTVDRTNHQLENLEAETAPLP
Procedure: Membrane preparations were obtained from whole brains of rats untreated (n=4). The brains were crushed and homogenized in TRIS-HCl 50 mM buffer. After centrifugation, the bases of the vials were suspended in the same volume of TRIS-HCl buffer (×2). When the membrane preparation was obtained, the proteins were quantified to prepare in fine a solution at 1 mg/ml. Proteins were quantified using a BCA protein assay. Then, binding studies were performed as follows: solutions to allow calculating total binding were prepared by adding 385 μL of a TRIS-HCl buffer to 330 μL of proteins and 385 μL of [^3H]-DAMGO at decreasing concentrations (n=2 per dose, N=12). Solutions to allow calculating non-specific binding were prepared in the same fashion with naloxone instead of buffer. The vials containing these solutions were left open and placed in a closed chamber to allow saturating the solutions with 100 vol % nitrogen or argon. 1000 μL of each vial were placed in a 24-well plate coated with polyethylenimine. After drying, 100 μL scintillant was added to allow counting radioactivity (×3). Specific binding was obtained by subtracting non-specific binding to total binding, and Bmax, Kd, and Bmax×1/Kd (mu receptor activity) were calculated.

[3] = system: spontaneously hypertensive rats; test: Locomotor activity in spontaneously hypertensive rats (ADHD model); type: in vivo, rat; conditions: argon 75 vol % 3 h daily day 1 to day 3 vs medical air; recorded on day 7; P<0.02
Procedure: Male spontaneously hypertensive rats (n=7-8 per group), known to show spontaneous locomotor hyperactivity and used as a model for the attention deficit and hyperactivity disorder (ADHD), were treated daily from day 1 to day 3 for 3 h with ‘medical’ air (composed of 75 vol % nitrogen and 25 vol % oxygen) or argon at 75 vol % (with the remainder being oxygen) at a flow rate of 5 L/min in a closed chamber. On day 7, rats were habituated to the activity boxes for 1 h before being recorded for locomotor activity for 1 h 30 min as detailed previously (David et al., Neuropharmacol., 2004).

Sprague-Dawley rats [4] = test: Social interaction in open field; type: in vivo, rat; conditions: argon 75 vol % 3 h day 1 to day 3 vs air; recorded after treatment on days 1 to 3 and on day 7; P<0.05
Procedure: (§1) In a first series of experiments, male adult Sprague-Dawley rats (n=6 per group) were treated for 3 h from day 1 to day 3 with ‘medical’ air (composed of 75 vol % nitrogen and 25 vol % oxygen) or argon at 75 vol % (with the remainder being oxygen) at a flow rate of 5 L/min in a closed chamber. None of the animals were habituated to handling with their abdomen side up. Immediately after being treated with either air or argon from day 1 to day 3, and on day 7, rats were handled by an experimenter blind of the rats' gas treatment, with their back placed in the palm of the experimenter and their abdomen side up. The rat's stress level was rated both by the experimenter and an additional observer, also blind of the rats' gas treatment, by counting the number of righting reflex of the animals during a 1-min period on a scale of 0 to 3 with 0 being a total absence of righting reflex and 3 being repetitive righting reflexes. Then, the rats' social interaction was also evaluated. The animals were placed by group of 2 in an open field measuring 90 cm×90 cm for a 10-min period, and the time spent by the animals at a distance comprised between 2 and 5 cm was recorded and taken as a behavioral marker of social interaction.

Sprague-Dawley rats [5] = test: Stress level: righting reflex when handled abdomen side up; type: in vivo, rat; conditions: argon 75 vol % 3 h day 1 to day 3 vs air; recorded after treatment on days 1 to 3 and on day 7; P<0.05
Procedure: as §1

[6] = biological target: T2, type 2 vesicular monoamine transporter (Rattus norvegicus, UniProt Q01827); test: Carrier-mediated and KCl-evoked dopamine release in nucleus accumbens brain slices with amphetamine; type: cell-based
T2 construct: Coronal brain slices (400 μm thickness) including the nucleus accumbens; from tissue; host or cells: rat nucleus accumbens brain slices
T2 sequence (Q01827 whole entry): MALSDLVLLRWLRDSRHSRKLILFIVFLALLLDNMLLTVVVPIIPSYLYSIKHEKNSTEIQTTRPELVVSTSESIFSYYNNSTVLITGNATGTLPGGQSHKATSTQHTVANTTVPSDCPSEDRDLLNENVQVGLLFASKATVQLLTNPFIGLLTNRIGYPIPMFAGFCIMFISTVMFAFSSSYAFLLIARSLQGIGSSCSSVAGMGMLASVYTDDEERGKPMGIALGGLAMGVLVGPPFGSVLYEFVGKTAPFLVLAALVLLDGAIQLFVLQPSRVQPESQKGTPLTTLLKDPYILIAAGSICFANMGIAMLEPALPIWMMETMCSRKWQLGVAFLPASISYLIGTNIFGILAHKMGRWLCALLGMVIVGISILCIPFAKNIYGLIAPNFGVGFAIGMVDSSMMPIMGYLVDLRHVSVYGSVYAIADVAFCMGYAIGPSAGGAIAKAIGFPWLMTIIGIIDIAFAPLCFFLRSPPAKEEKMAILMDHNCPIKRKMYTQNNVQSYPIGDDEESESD
Procedure: Rats were killed by decapitation and the brains were carefully removed and placed in ice-cold artificial cerebrospinal fluid (aCSF). Coronal brain slices (400 μm thickness) including the nucleus accumbens (anteriority: −1.2 to +2 mm from the bregma) were cut using a tissue chopper. Before being used, brain slices (n=4 per condition) were allowed to recover at room temperature for 1 hour in oxygenated a CSF. […] Control slices were treated with saline solution and air. Carrier-mediated and depolarization-dependent (KCl: 100 mM) dopamine release in the nucleus accumbens were monitored using a polarograph and standard glass-encased nafion-precoated carbon fiber electrodes (David H. N. et al., Biol. Psych., 2006). […] Therefore, in the experiments with argon, argon was only administered after Peak 1 (P1) KCl-evoked dopamine release had returned to baseline (B2).

[7] = system: type A γ-aminobutyric acid (GABA) and benzodiazepine receptors; conditions: pressure of around 15 atmospheres absolute; cited from earlier work

[Ar] [argon]
time spent in central area of the open field (Sprague-Dawley rats [1]): penetrated the central area of the open field to a greater extent | side effects of breathing argon [2]: no or minimal side effect | 1/Kd (affinity) of DAMGO binding (mu opioid receptor): trend toward reduction | decrease in mu receptor activity (Bmax×1/Kd) (mu opioid receptor; P<0.05): 60% | decrease of Bmax (number of receptors) of DAMGO binding (mu opioid receptor; membrane protein preparations): 15% | locomotor activity [3]: lower locomotor activity | social interactions (Sprague-Dawley rats [4]): increased number of social interactions | number of righting reflex when handled abdomen side up (Sprague-Dawley rats [5]): reduced number of righting reflex | effect on Peak 2 KCl-evoked dopamine release ([6]; amphetamine in the presence of air or argon, KCl 100 mM): lack of effect | effect on amphetamine-induced reduction in Peak 3 (P3) KCl-evoked dopamine release ([6]; argon 75 vol % vs air, with amphetamine, KCl 100 mM, P<0.02): further potentiates the reduction | effect on amphetamine-induced increase in carrier-mediated dopamine release ([6]; argon 75 vol % vs air, with amphetamine, rat nucleus accumbens slices, P<0.02): decreases the facilitating action of amphetamine | action at type A GABA and benzodiazepine receptors [7]: acts as an agonist
